In EP4721737A1, “USE OF PHARMACEUTICAL COMPOSITION COMPRISING COMPOUND HAVING BIS(AZANYLYLIDENE) SULFONYL STRUCTURE FOR TREATING ANEMIA-RELATED DISEASES” (Scinnohub Pharmaceutical Co., Ltd., priority 2023, dated 2024) one finds AC50 data, which are given here for twelve compounds.

SMILES strings stand for the structures.

T1 sequence (P30613 whole entry): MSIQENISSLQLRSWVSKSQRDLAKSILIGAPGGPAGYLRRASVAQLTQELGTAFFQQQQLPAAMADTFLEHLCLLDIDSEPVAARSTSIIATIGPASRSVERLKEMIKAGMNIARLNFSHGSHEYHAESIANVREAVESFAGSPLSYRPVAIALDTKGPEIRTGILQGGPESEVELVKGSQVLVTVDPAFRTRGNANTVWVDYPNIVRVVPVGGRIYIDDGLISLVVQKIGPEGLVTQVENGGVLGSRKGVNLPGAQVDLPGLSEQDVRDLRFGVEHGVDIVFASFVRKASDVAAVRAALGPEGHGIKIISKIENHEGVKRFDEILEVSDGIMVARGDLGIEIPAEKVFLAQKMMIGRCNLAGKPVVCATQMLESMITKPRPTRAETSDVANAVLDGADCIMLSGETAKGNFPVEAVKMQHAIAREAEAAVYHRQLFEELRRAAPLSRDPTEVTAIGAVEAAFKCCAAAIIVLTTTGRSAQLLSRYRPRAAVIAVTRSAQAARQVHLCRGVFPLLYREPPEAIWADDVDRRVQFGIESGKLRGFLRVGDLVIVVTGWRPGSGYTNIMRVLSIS

This test has as its target T1, PKR in ex vivo red blood cells from healthy individuals (Homo sapiens, UniProt P30613).
T1 construct: endogenous in cells; host or cells: human red blood cells isolated from fresh peripheral blood of healthy individuals
The experiment in a line: ex vivo pyruvate kinase (PKR) activity experiment, red blood cells of healthy individuals. It is filed as cell-based. Conditions: 3 hours co-cultivation. The procedure: To test the effects of the compound of the present disclosure on PKR activation in ex vivo red blood cells from healthy individuals and patients with thalassemia.
• i. 5 g of glucose, 85 mg of adenine, and 2.625 g of mannitol were weighed and added into a 50 mL centrifuge tube. 40 mL of PBS was added to dissolve (sonicate for 30 minutes until completely dissolved). The solution was filtered through a 0.22 µm filter, then added to 460 mL of sterile PBS and mixed thoroughly.
• i. Fresh human peripheral blood was collected. K2EDTA was used as the anticoagulant. 1 part anticoagulant with 9 parts blood was mixed, then centrifuged at 500 g for 10 minutes at room temperature to remove the plasma. • ii. Packed red blood cells: 1.5 volumes of PBS were added, then centrifuged at 2000 ×g for 5 minutes at room temperature. After centrifugation, the supernatant was removed. This step was repeated twice. • iii. Diluted red blood cells: 1.5 volumes of PBS were added, then resuspended and mixed thoroughly. • iv. The diluted red blood cells were slowly added to 0.5 volume of 70% isotonic solution (e.g., 7.5 mL of diluted red blood cells + 3 mL of 70% isotonic solution Percoll) and centrifuged at 4000 ×g for 20 minutes at 4°C. • v. The supernatant was removed. The red blood cells at the bottom were washed once with 4-5 mL of PBS to elute the Percoll gel, and then centrifuged at 2000 ×g for 5 minutes at room temperature. • vi. The supernatant was removed. The red blood cells were counted and then diluted in AGAM medium containing 10% FBS to a density of 2 × 10^8 cells/mL for storage at 4°C.
i. The red blood cells were seeded into a 96-well plate at a uniform density of 1 × 10^7 cells/mL, with 100 µL per well. The test compounds (dissolved in DMSO) were diluted and added to the cell culture medium, resulting in final compound concentrations of 3000, 1000, 300, 100, 10, 3, and 1 nM (with 1% DMSO). The cells and compounds were co-cultivated for 3 hours in a 37°C incubator with 5% CO2. Subsequently, the plate was centrifuged at 2000 g for 20 minutes, and the supernatant was discarded. 100 µL of red blood cell lysis buffer was added to the cell pellet, vortexed for 20 minutes, and centrifuged at 4000 g for 5 minutes. The supernatant was collected for analysis. ii. The reaction system was prepared according to the kit instructions (shown as the table below), 10 µL of the reaction system was added to each well of a 384-well plate, and 10 µL of red blood cell lysis buffer was took and mixed well (20 µL reaction system).
iii. A black, transparent-bottomed 384-well plate was placed in a microplate reader to measure fluorescence at 540/590 nm. The fluorescence was read every 2 minutes for 1 hour.
i. The Slope value was calculated over the assay time. Compound activation percentage was calculated using the 1% DMSO well as the control well. Activation percentage = (Slope of compound well / Slope of control well) × 100% ii. Dose-response curve was fit using the logarithmic compound concentration on the X-axis and the percent activation percentage on the Y-axis, the log(agonist) vs. response - variable slope function in GraphPad Prism 5 was used to determine the AC50 value for each compound on PKR activity. Y = min + (max−min)/(1+10^(∧)((LogAC50−X)×Hillslope)). [formula] The PKR agonist effects of the compound of the present disclosure on ex vivo red blood cells from healthy individuals and thalassemia patients were determined using the above assay. The AC50 values measured on ex vivo red blood cells from healthy individuals are as follows (A represents 0-100 nM, B represents 101-300 nM, and C represents 300-1000 nM): […]
By AC50 is commonly meant the concentration at which the activity in the assay is half-maximal. Turning to `O=C([C@H](CO)c1ccccc1)N1CC(=C2CN(S(=O)(=O)c3cnc4c(c3)OCCO4)C2)C1` [Compound 1, (S)-1-(1'-((2,3-dihydro-[1,4]dioxino[2,3-b]pyridin-7-yl)sulfonyl)-1',4'-dihydro-2H,2'H-[3,3'-diazetidinylidene]-1(4H)-yl)-3-hydroxy-2-phenylpropan-1-one], the AC50 lay within 101 to 300 nM. The value for `O=C([C@H](CO)c1ccccc1)N1CC(=C2CN(S(=O)(=O)c3ccc4c(c3)OCCO4)C2)C1` [Compound 2, (S) -1-(1'-((2,3-dihydrobenzo[b][1,4]dioxin-6-yl)sulfonyl)-1',4'-dihydro-2H,2'H-[3,3'-diazetidinylidene]-1(4H)-yl)-3-hydroxy-2-phenylpropan-1-one] was 300 to 1000 nM; that for `O=C([C@H](CO)c1ccccc1)N1CC(=C2CN(S(=O)(=O)c3ccc4ncsc4c3)C2)C1` [Compound 3, (S)-1-(1'-(benzo[d]thiazol-6-ylsulfonyl)-1',4'-dihydro-2H,2'H-[3,3'-diazetidinylidene]-1(4H)-yl)-3-hy droxy-2-phenylpropan-1-one] was 101 to 300 nM; that for `O=C([C@H](CO)c1ccccc1)N1CC(=C2CN(S(=O)(=O)c3ccccn3)C2)C1` [Compound 4, (S)-3-hydroxy-2-phenyl-1-(1'-(pyridin-2-ylsulfonyl)-1',4'-dihydro-2H,2'H-[3.3'-diazetidinylidene]-1(4H)-yl)propan-1-one] was less than 100 nM. Then `COc1ccc(S(=O)(=O)N2CC(=C3CN(C(=O)[C@H](CO)c4ccccc4)C3)C2)cc1` [Compound 5, (S)-3-hydroxy-1-(1'-((4-methoxyphenyl)sulfonyl)-1',4'-dihydro-2H,2'H-[3,3'-diazetidinylidene]-1(4H )-yl)-2-phenylpropan-1-one], with 101 to 300 nM; and `O=C([C@H](CO)c1ccccc1)N1CC(=C2CN(S(=O)(=O)c3ccc(OC(F)F)cc3)C2)C1` [Compound 7, (S)-1-(1'-((4-(difluoromethoxy)phenyl)sulfonyl)-1',4'-dihydro-2H,2'H-[3,3'-diazetidinylidene]-1(4H)-yl)-3-hydroxy-2-phenylpropan-1-one], with less than 100 nM. Then `O=C([C@H](CO)c1ccccc1)N1CC(=C2CN(S(=O)(=O)c3ccc(OC(F)(F)F)cc3)C2)C1` [Compound 9, (S)-3-hydroxy-2-phenyl-1-(1'-((4-(trifluoromethoxy)phenyl)sulfonyl)-1',4'-dihydro-2H,2'H-[3,3'-diazetidinylidene]-1(4H)-yl)propan-1-one], with less than 100 nM; and `O=C([C@H](CO)c1ccccc1)N1CC(=C2CN(S(=O)(=O)c3ccc(F)cc3)C2)C1` [Compound 10], with less than 100 nM. As to `O=C([C@H](CO)c1ccccc1)N1CC(=C2CN(S(=O)(=O)c3ccc(OC(F)F)c(F)c3)C2)C1` [Compound 11], the AC50 is less than 100 nM. Regarding `O=C([C@H](CO)c1ccccc1)N1CC(=C2CN(S(=O)(=O)c3ccc4c(c3)NCCO4)C2)C1` [Compound 12, (S)-1-(1'-((3,4-dihydro-2H-benzo[b][1,4]oxazin-6-yl)sulfonyl)-1',4'-dihydro-2H,2'H-[3,3'-diazetidinylidene]-1(4H)-yl)-3-hydroxy-2-phenylpropan-1-one], the AC50 lay within 300 to 1000 nM. The compound `O=C(C(CO)c1ccc(F)cc1)N1CC(=C2CN(S(=O)(=O)c3ccc(OC(F)F)cc3)C2)C1` (stereo not drawn) [Compound 16, 1-(1'-((4-(difluoromethoxy)phenyl)sulfonyl)-1',4'-dihydro-2H,2'H-[3,3'-diazetidinylidene]-1(4H)-yl)-2-(4-fluorophenyl)-3-hydroxypropan-1-one] gave an AC50 of less than 100 nM. The value for `O=C([C@H](CO)c1ccccc1)N1CC(=C2CN(S(=O)(=O)c3cc(F)c4c(c3)OCCO4)C2)C1` [Compound 20, (S)-1-(1'-((8-fluoro-2,3-dihydrobenzo[b][1,4]dioxin-6-yl)sulfonyl)-1',4'-dihydro-2H,2'H-[3,3'-diazetidinylidene]-1(4H)-yl)-3-hydroxy-2-phenylpropan-1-one] was 300 to 1000 nM.
